Columns and labels:
TGF-beta receptor type-1 [1] = target: T1, TGF-beta receptor type-1 (Homo sapiens, UniProt P36897); type: cell-based, MDA-MB-468
T1 sequence (P36897 whole entry): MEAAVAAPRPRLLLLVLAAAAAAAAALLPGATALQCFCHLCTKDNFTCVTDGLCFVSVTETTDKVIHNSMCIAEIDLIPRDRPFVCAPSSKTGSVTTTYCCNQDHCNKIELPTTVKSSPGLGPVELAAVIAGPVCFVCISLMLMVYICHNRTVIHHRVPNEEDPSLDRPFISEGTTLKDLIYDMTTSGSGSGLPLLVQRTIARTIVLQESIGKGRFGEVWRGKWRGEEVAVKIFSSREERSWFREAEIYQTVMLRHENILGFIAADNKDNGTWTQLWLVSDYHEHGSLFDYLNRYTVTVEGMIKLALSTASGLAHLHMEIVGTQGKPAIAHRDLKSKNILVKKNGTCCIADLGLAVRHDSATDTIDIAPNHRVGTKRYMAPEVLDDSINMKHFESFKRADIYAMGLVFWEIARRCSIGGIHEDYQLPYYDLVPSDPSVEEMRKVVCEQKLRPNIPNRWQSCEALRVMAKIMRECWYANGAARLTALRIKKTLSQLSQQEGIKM
Description: Inhibition of ALK5 in human MDA-MB-468 cells assessed as inhibition of nuclear translocation of GFP-2/Smad2 fusion reporter gene after 90 mins by Hoechst 3342 staining-based cellomics arrayscan imaging analysis

TGF-beta receptor type-1 [2] = target: T1, TGF-beta receptor type-1; test: Inhibition of 6His-tagged human ALK5 expressed in baculovirus-infected SF21 cells after 30 mins by fluorescence polarization assay
[3] = Octanol-phosphate buffered saline partition coefficient, log D at pH 7.4
in vivo [4] = details: Han Wistar, rat, plasma, po, 5 umol/kg
Description: AUC in Han Wistar rat at 5 umol/kg, po

in vivo [5] = details: Han Wistar, rat, po, 5 umol/kg
Description: Oral bioavailability in Han Wistar rat at 5 umol/kg

[6] = Clearance in Han Wistar rat at 5 umol/kg, po; details: in vivo, iv
[7] = octanol/phosphate buffered saline

| SMILES | IC50 (TGF-beta receptor type-1 [1]) [µM] | IC50 (TGF-beta receptor type-1 [2]) [µM] | logD ([3]; octanol/water) | logD [3, 7] | AUC (in vivo [4]) [nM·h] | bioavailability (in vivo [5]) [%] | clearance [6] [L/h/kg] |
| --- | --- | --- | --- | --- | --- | --- | --- |
| COc1cc(Nc2cc(Oc3cccnc3C)ccn2)cc(OC)c1OC | 0.628 | 0.107 | – | – | – | – | – |
| COc1cc(Nc2cc(Oc3ccc(C)nc3)ccn2)cc(OC)c1OC | 0.282 | 0.108 | 3.2 | – | – | – | – |
| Cc1cc(Oc2ccnc(Nc3ccc(F)cc3)c2)c(-c2ccccn2)nc1C | 0.063 | 0.129 | – | 3.2 | – | – | – |
| Cc1cc(Oc2ccnc(Nc3cccc(N4CCOCC4)c3)c2)c(-c2ccccn2)nc1C | – | – | – | 3.3 | – | – | – |
| COc1cc(Nc2cc(Oc3ccc(C)nc3C)ccn2)cc(OC)c1OC | 0.021 | – | – | 3 | 340 | 21 | – |
| COc1cc(Nc2cc(Oc3cccnc3)ccn2)cc(OC)c1OC | > 5.8 | 0.227 | – | 2.7 | – | – | – |
| COc1cc(Nc2cc(Oc3cc(C)c(C)nc3-c3ccccn3)ccn2)cc(OC)c1OC | – | – | – | – | – | 4 | – |
| Cc1cc(Oc2ccnc(Nc3ccc(N4CCOCC4)cc3)c2)c(-c2ccccn2)nc1C | – | – | – | 2.6 | – | – | – |
| COc1ccccc1Nc1cc(Oc2cc(C)c(C)nc2-c2ccccn2)ccn1 | 0.114 | 0.007 | 3.4 | – | – | – | – |
| Cc1cc(Oc2ccnc(Nc3ccccc3N3CCOCC3)c2)c(-c2ccccn2)nc1C | – | – | – | 3.1 | – | – | – |
| Cc1cc(Oc2ccnc(Nc3ccc(C(=O)N(C)C)cc3)c2)c(-c2ccccn2)nc1C | 0.031 | 0.012 | – | 3.4 | – | – | – |
| Cc1cc(Oc2ccnc(Nc3ccc(S(N)(=O)=O)cc3)c2)c(-c2ccccn2)nc1C | 0.027 | 0.021 | – | 2.3 | 470 | 20 | – |
| COc1cc(Nc2cc(Oc3ccc(C)nc3-c3ccccn3)ccn2)cc(OC)c1OC | 0.02 | 0.013 | – | 3.4 | – | – | – |
| Cc1ccc(Oc2ccnc(Nc3ccc(S(N)(=O)=O)cc3)c2)c(C)n1 | – | – | 2.5 | – | 4950 | 75 | 0.72 |

Source: ChEMBL document CHEMBL1155219, “Rapid generation of a high quality lead for transforming growth factor-beta (TGF-beta) type I receptor (ALK5)” (J Med Chem, 2009)
